# Measured values from PubChem BioAssay (NCI).
#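 Assay format: 96-well plates, 48-hour exposure. TGI marks complete inhibition of growth.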
# Assays:
# Test in all cases: NCI tumour cell line growth inhibition, 48 h
# [1] = test system: 786-0 renal
# [2] = test system: A549 NSCLC
# [3] = test system: ACHN renal
# [4] = test system: BT-549 breast
# [5] = test system: CAKI-1 renal
# [6] = test system: COLO 205 colon
# [7] = test system: EKVX NSCLC
# [8] = test system: HCC-2998 colon
# [9] = test system: HCT-116 colon
# [10] = test system: HCT-15 colon
# [11] = test system: HOP-62 NSCLC
# [12] = test system: HOP-92 NSCLC
# [13] = test system: HS 578T breast
# [14] = test system: HT29 colon
# [15] = test system: IGROV1 ovarian
# [16] = test system: K-562 leukemia
# [17] = test system: KM12 colon
# [18] = test system: LOX IMVI melanoma
# [19] = test system: M14 melanoma
# [20] = test system: MALME-3M melanoma
# [21] = test system: MCF7 breast
# [22] = test system: MDA-MB-231 breast
# [23] = test system: MDA-MB-435
# [24] = test system: MDA-N
# [25] = test system: MOLT-4 leukemia
# [26] = test system: NCI-H226 lung
# [27] = test system: NCI-H23 lung
# [28] = test system: NCI-H460 lung
# [29] = test system: NCI-H522 lung
# [30] = test system: NCI/ADR-RES ovarian
# [31] = test system: OVCAR-4 ovarian
# [32] = test system: OVCAR-5 ovarian
# [33] = test system: OVCAR-8 ovarian
# [34] = test system: PC-3 prostate
# [35] = test system: RPMI-8226 leukemia
# [36] = test system: RXF 393 renal
# [37] = test system: SF-268 CNS
# [38] = test system: SF-295 CNS
# [39] = test system: SF-539 CNS
# [40] = test system: SK-MEL-2 melanoma
# [41] = test system: SK-MEL-28 melanoma
# [42] = test system: SK-MEL-5 melanoma
# [43] = test system: SK-OV-3 ovarian
# [44] = test system: SN12C renal
# [45] = test system: SNB-19 CNS
# [46] = test system: SNB-75 CNS
# [47] = test system: SR leukemia
# [48] = test system: SW-620 colon
# [49] = test system: T-47D breast
# [50] = test system: TK-10 renal
# [51] = test system: U251 CNS
# [52] = test system: UACC-257 melanoma
# [53] = test system: UACC-62 melanoma
# [54] = test system: UO-31 renal
# [55] = test system: A498 renal
# [56] = test system: CCRF-CEM leukemia
# [57] = test system: DU-145 prostate
# [58] = test system: HL-60(TB) leukemia
# [59] = test system: OVCAR-3 ovarian
structure (smiles),measurement,setting,value
C=CCOC(=O)C[C@H](NC(=O)[C@H](Cc1ccc(O)cc1)NCC(F)(F)F)C(=O)OCC=C,TGI,[1],> 100 µM
same,TGI,[2],> 100 µM
same,TGI,[3],> 100 µM
same,TGI,[4],> 100 µM
same,TGI,[5],> 100 µM
same,TGI,[6],> 100 µM
same,TGI,[7],> 100 µM
same,TGI,[8],> 100 µM
same,TGI,[9],> 100 µM
same,TGI,[10],> 100 µM
same,TGI,[11],> 100 µM
same,TGI,[12],> 100 µM
same,TGI,[13],> 100 µM
same,TGI,[14],> 100 µM
same,TGI,[15],> 100 µM
same,TGI,[16],> 100 µM
same,TGI,[17],> 100 µM
same,TGI,[18],> 100 µM
same,TGI,[19],> 100 µM
same,TGI,[20],52.7 µM
same,TGI,[21],> 100 µM
same,TGI,[22],> 100 µM
same,TGI,[23],> 100 µM
same,TGI,[24],> 100 µM
same,TGI,[25],60.1 µM
same,TGI,[26],> 100 µM
same,TGI,[27],> 100 µM
same,TGI,[28],> 100 µM
same,TGI,[29],68.9 µM
same,TGI,[30],> 100 µM
same,TGI,[31],> 100 µM
same,TGI,[32],> 100 µM
same,TGI,[33],> 100 µM
same,TGI,[34],> 100 µM
same,TGI,[35],> 100 µM
same,TGI,[36],> 100 µM
same,TGI,[37],> 100 µM
same,TGI,[38],> 100 µM
same,TGI,[39],> 100 µM
same,TGI,[40],46.1 µM
same,TGI,[41],44.5 µM
same,TGI,[42],97.5 µM
same,TGI,[43],> 100 µM
same,TGI,[44],> 100 µM
same,TGI,[45],> 100 µM
same,TGI,[46],> 100 µM
same,TGI,[47],> 100 µM
same,TGI,[48],> 100 µM
same,TGI,[49],58.1 µM
same,TGI,[50],> 100 µM
same,TGI,[51],> 100 µM
same,TGI,[52],44.2 µM
same,TGI,[53],> 100 µM
same,TGI,[54],> 100 µM
C=C1C(NC)CCC23CC24CCC2(C)C(C(C)=O)C(O)CC2(C)C4CCC13 (stereo not given),TGI,[1],> 100 µM
same,TGI,[55],> 100 µM
same,TGI,[2],> 100 µM
same,TGI,[3],> 100 µM
same,TGI,[4],> 100 µM
same,TGI,[5],> 100 µM
same,TGI,[56],> 100 µM
same,TGI,[6],> 100 µM
same,TGI,[57],> 100 µM
same,TGI,[7],> 100 µM
same,TGI,[8],> 100 µM
same,TGI,[9],> 100 µM
same,TGI,[10],> 100 µM
same,TGI,[58],> 100 µM
same,TGI,[12],> 100 µM
same,TGI,[13],> 100 µM
same,TGI,[14],> 100 µM
same,TGI,[15],> 100 µM
same,TGI,[16],> 100 µM
same,TGI,[17],> 100 µM
same,TGI,[18],> 100 µM
same,TGI,[19],> 100 µM
same,TGI,[20],> 100 µM
same,TGI,[21],> 100 µM
same,TGI,[22],> 100 µM
same,TGI,[23],> 100 µM
same,TGI,[24],> 100 µM
same,TGI,[25],> 100 µM
same,TGI,[26],> 100 µM
same,TGI,[27],> 100 µM
same,TGI,[28],> 100 µM
same,TGI,[29],> 100 µM
same,TGI,[30],> 100 µM
same,TGI,[59],> 100 µM
same,TGI,[31],> 100 µM
same,TGI,[32],> 100 µM
same,TGI,[33],> 100 µM
same,TGI,[34],> 100 µM
same,TGI,[35],> 100 µM
same,TGI,[37],> 100 µM
same,TGI,[38],82.5 µM
same,TGI,[39],> 100 µM
same,TGI,[40],> 100 µM
same,TGI,[41],> 100 µM
same,TGI,[42],> 100 µM
same,TGI,[43],> 100 µM
same,TGI,[44],> 100 µM
same,TGI,[45],> 100 µM
same,TGI,[46],> 100 µM
same,TGI,[48],> 100 µM
same,TGI,[49],> 100 µM
same,TGI,[50],> 100 µM
same,TGI,[51],> 100 µM
same,TGI,[52],> 100 µM
same,TGI,[53],> 100 µM
same,TGI,[54],> 100 µM
